Measurements taken from ChEMBL document CHEMBL1143514 (Bioorg Med Chem Lett, 2005).

How the values were obtained:
[1] = target: Cyclin-dependent kinase 4/cyclin D1 (Homo sapiens, UniProt P11802); experiment: Inhibitory concentration against human Cyclin D1-cyclin-dependent kinase 4 was observed; format: protein-complex assay
[2] = target: Cyclin-dependent kinase 1/cyclin B (Homo sapiens, UniProt P06493); experiment: Inhibitory concentration against human Cyclin B-cyclin-dependent kinase 1 was observed; format: protein-complex assay
[3] = target: Cyclin-dependent kinase 2/cyclin E (Homo sapiens, UniProt P24941); experiment: Inhibitory concentration against human Cyclin E-cyclin-dependent kinase 2 was observed; format: protein-complex assay
[4] = test system: HCT-116; experiment: Inhibitory concentration against proliferation of human HCT116 cells was observed by MTT assay; format: functional, cell-based

Sequence of Cyclin-dependent kinase 4/cyclin D1 (P11802 whole entry): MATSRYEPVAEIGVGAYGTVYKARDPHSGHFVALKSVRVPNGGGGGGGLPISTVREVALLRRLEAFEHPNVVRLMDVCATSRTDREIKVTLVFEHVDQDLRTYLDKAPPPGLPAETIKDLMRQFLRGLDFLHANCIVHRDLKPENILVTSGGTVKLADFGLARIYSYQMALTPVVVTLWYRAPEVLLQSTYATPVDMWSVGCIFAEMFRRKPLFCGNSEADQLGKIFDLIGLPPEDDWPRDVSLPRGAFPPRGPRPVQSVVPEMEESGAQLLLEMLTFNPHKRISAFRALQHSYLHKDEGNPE
Sequence of Cyclin-dependent kinase 4/cyclin D1 (P24385 whole entry, further chain): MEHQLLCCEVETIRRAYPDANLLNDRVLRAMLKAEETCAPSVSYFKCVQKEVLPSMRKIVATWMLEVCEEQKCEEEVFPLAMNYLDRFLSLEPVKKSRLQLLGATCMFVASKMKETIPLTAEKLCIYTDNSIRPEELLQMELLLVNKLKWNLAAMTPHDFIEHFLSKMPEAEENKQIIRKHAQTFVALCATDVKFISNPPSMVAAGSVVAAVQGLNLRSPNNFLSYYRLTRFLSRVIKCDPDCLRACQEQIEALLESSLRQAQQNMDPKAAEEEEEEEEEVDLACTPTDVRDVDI

| SMILES | IC50 [1] [nM] | IC50 [2] [nM] | IC50 [3] [nM] | IC50 [4] [nM] |
| --- | --- | --- | --- | --- |
| NC(=O)c1ccc(Nc2cn3cc(C(=O)c4c(Cl)cccc4Cl)ccc3n2)cc1 | 1610 | 580 | 1630 |  |
| CN(C)S(=O)(=O)c1ccc(Nc2cn3cc(C(=O)c4c(Cl)cccc4Cl)ccc3n2)cc1 | 2160 | 970 | 1540 |  |
| NC(=O)c1cccc(Nc2cn3cc(C(=O)c4c(Cl)cccc4Cl)ccc3n2)c1 | 3950 | 1920 | 2720 |  |
| O=C(c1ccc2nc(Nc3ccc(Oc4ccccc4)cc3)cn2c1)c1c(Cl)cccc1Cl | > 20000 | > 20000 | > 20000 |  |
| CSc1cccc(Nc2cn3cc(C(=O)c4c(Cl)cccc4Cl)ccc3n2)c1 | 11900 | 4800 | 17700 |  |
| O=C(NS(=O)(=O)c1ccc(Nc2cn3cc(C(=O)c4c(Cl)cccc4Cl)ccc3n2)cc1)c1ccccc1 | 3840 | 250 | 670 |  |
| CSc1ccc(Nc2cn3cc(C(=O)c4c(Cl)cccc4Cl)ccc3n2)cc1 | 7400 | 3040 | 13800 |  |
| NS(=O)(=O)c1ccc(Nc2cn3cc(C(=O)c4c(Cl)cccc4Cl)ccc3n2)cc1 | 1340 | 390 |  | 5500 |
| CS(=O)(=O)c1cccc(Nc2cn3cc(C(=O)c4c(Cl)cccc4Cl)ccc3n2)c1 | 3140 | 1700 | 2860 |  |
| CS(=O)(=O)c1ccc(Nc2cn3cc(C(=O)c4c(Cl)cccc4Cl)ccc3n2)cc1 | 1220 | 520 | 1210 |  |
| N=C(N)NS(=O)(=O)c1ccc(Nc2cn3cc(C(=O)c4c(Cl)cccc4Cl)ccc3n2)cc1 | 1290 | 160 | 250 |  |
| O=C(O)c1ccc(Nc2cn3cc(C(=O)c4c(Cl)cccc4Cl)ccc3n2)cc1 | 4990 | 450 | 740 |  |
| CN(C)S(=O)(=O)c1cccc(Nc2cn3cc(C(=O)c4c(Cl)cccc4Cl)ccc3n2)c1 | > 20000 | 9260 | 12100 |  |
| O=C(c1ccc2nc(Nc3ccncc3)cn2c1)c1c(Cl)cccc1Cl | > 20000 | > 20000 | > 20000 |  |
